Measurements: ChEMBL document CHEMBL1132232, “7alpha-Iodo and 7alpha-fluoro steroids as androgen receptor-mediated imaging agents” (J Med Chem, 1999)

Columns and labels:
Rattus norvegicus [1] = test: Distribution of tissue Radioactivity following Intravenous injection into castrated male rat prostate/blood; format: ADME, organism-based; conditions: other tissue
[2] = target: T1, Androgen receptor (Homo sapiens) (UniProt P10275); conditions: CV-1
T1 sequence (whole entry): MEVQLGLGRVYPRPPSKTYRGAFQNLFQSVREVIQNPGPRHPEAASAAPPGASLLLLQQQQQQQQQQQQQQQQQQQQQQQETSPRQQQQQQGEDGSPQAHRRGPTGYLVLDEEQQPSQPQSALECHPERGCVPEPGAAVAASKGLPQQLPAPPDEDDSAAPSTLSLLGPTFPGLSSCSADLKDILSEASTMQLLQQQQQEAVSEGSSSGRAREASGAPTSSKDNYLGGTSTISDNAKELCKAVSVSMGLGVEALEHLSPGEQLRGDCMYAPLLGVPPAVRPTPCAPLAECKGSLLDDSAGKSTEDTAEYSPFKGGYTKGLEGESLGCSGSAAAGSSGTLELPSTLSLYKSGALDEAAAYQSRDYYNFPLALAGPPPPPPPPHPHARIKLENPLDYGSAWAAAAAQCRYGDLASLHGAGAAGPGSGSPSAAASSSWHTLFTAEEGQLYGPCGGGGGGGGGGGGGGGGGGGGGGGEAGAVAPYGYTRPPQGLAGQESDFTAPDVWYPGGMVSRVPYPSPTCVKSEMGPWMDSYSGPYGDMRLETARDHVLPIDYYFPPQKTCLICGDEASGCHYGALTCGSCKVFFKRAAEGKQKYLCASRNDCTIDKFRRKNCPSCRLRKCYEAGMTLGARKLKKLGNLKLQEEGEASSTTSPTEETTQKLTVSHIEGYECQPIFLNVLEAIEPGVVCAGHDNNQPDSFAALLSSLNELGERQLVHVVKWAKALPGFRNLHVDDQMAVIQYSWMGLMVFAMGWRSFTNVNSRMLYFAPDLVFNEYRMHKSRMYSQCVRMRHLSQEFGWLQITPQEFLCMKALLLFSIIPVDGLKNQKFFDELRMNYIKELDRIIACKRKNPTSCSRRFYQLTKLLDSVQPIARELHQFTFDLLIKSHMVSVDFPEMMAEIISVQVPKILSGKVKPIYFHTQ
Description: Relative stimulatory activity compared to 5-alpha-DHT in CV-1 cells expressing androgen receptor

Rattus norvegicus [3] = test: Distribution of tissue Radioactivity following Intravenous injection into castrated male rat and 5-alpha-DHT was reported; format: ADME, organism-based; conditions: in vivo

Row | Compound | Biodistribution (Rattus norvegicus [1]) [%] | RSA [2] | Biodistribution (Rattus norvegicus [3]) [%]
1 | CC12CC[C@H]3[C@@H]([C@H](I)CC4CC(=O)CCC43C)[C@@H]1CCC2O (some centres undefined) | 1.34 | 20 | 0.94
2 | C[C@]12CC[C@@H]3C4CCC(=O)CC4C[C@@H](F)[C@H]3[C@@H]1CC[C@@H]2O (some centres undefined) |  | 44 | 
